Counter-ions that a name gives are not always drawn.
Experiments:
human NTCP [1] = molecular target: T1, human NTCP (Homo sapiens, UniProt Q14973); assay: Screening fluorescent competitive Myrcludex B-FITC binding assay (96-well, 10 µM drug); conditions: 10 µM drug
T1 sequence (Q14973 1-349): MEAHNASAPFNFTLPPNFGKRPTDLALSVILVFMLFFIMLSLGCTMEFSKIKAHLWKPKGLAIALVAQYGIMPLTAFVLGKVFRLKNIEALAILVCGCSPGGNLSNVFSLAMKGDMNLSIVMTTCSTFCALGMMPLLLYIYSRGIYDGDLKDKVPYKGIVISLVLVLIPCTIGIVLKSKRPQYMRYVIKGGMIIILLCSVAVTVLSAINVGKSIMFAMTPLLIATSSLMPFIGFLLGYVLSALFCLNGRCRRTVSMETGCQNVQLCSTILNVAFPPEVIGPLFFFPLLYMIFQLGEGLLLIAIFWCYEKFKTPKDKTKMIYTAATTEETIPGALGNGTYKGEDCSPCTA

human NTCP [2] = molecular target: T1, human NTCP; assay: Screening taurocholate uptake assay (96-well, [14C]taurocholate, 10 µM drug); conditions: for B-score functional assay: 10 µM drug
[3] = screen, Myrcludex B-FITC binding
[4] = combined ranking from functional and binding screening assays
[5] = Prestwick library screen, Myrcludex B-FITC binding
[6] = Prestwick library screen, taurocholate uptake
[7] = ranking score beside the functional and binding assay B-scores of the screen
[8] = Prestwick library screen, B-score of Myrcludex B-FITC binding
[9] = Prestwick library screen, B-score of taurocholate uptake
[10] = combined ranking from functional and binding assay B-scores

SMILES	B-score binding assay (human NTCP [1]; [3])	Ranking score (human NTCP [2]; [4])	B-score functional assay (human NTCP [2]; screen, taurocholate uptake)	B-score binding assay (human NTCP [1]; [5])	B-score functional assay (human NTCP [2]; [6])	Ranking score (human NTCP [2]; [7])	further results
CCOc1ccc2c(c1)C(C)=CC(C)(C)N2 [Ethoxyquin]	-1.217	406.463	0.194				
CC(O)(P(=O)([O-])O)P(=O)([O-])O.[Na+].[Na+] [Etidronic acid, disodium salt]				0.806	-0.023	776.081	
Cn1c(=O)c2c(ncn2CCO)n(C)c1=O [Etofylline]				0.258	0.319	831.39	
CCOC(=O)c1cncn1[C@H](C)c1ccccc1 [Etomidate]							B-score binding assay (human NTCP [1]; [8]): -0.068; B-score functional assay (human NTCP [2]; [9]): 5.522; Ranking score (human NTCP [2]; [10]): 852.333
COc1cc([C@@H]2c3cc4c(cc3[C@@H](O[C@@H]3O[C@@H]5CO[C@@H](C)O[C@H]5[C@H](O)[C@H]3O)[C@H]3COC(=O)[C@H]23)OCO4)cc(OC)c1O [Etoposide]	0.046	333.467	-1.678				
Cc1ccc(-c2ncc(Cl)cc2-c2ccc(S(C)(=O)=O)cc2)cn1 [Etoricoxib]	-0.254	393.756	-0.663				
CCOC(=O)/C=C(C)/C=C/C=C(C)/C=C/c1c(C)cc(OC)c(C)c1C [Etretinate]				-0.079	0.504	712.48	
CC1CC(OC(=O)C(O)c2ccccc2)CC(C)(C)N1C (stereo not drawn) [Eucatropine hydrochloride]							B-score binding assay (human NTCP [1]; [8]): 1.847; B-score functional assay (human NTCP [2]; [9]): 0.117; Ranking score (human NTCP [2]; [10]): 950.91
NC(N)=Nc1nc(CSCCC(N)=NS(N)(=O)=O)cs1 [Famotidine]				0.039	0.754	828.628	
CC(C)c1c(CN(C)C(C)Cc2ccccc2)n(C)n(-c2ccccc2)c1=O (stereo not drawn) [Famprofazone]	-0.284	376.915	-0.708				
O=C(O)CCC(=O)c1ccc(-c2ccccc2)cc1 [Fenbufen]	-0.209	326.986	-1.216				
CC(NCCC(c1ccccc1)c1ccccc1)c1ccccc1 (stereo not drawn) [Fendiline hydrochloride]							B-score binding assay (human NTCP [1]; [8]): 0.223; B-score functional assay (human NTCP [2]; [9]): 0.662; Ranking score (human NTCP [2]; [10]): 880.552
CCCCC(O)c1ccccc1 (stereo not drawn) [Fenipentol]	-0.138	460.361	-0.409				
CC(C(=O)[O-])c1cccc(Oc2ccccc2)c1.CC(C(=O)[O-])c1cccc(Oc2ccccc2)c1.O.O.[Ca+2] (stereo not drawn) [Fenoprofen calcium salt dihydrate]	0.022	452.388	-0.759				
CC(Cc1ccc(O)cc1)NCC(O)c1cc(O)cc(O)c1 (stereo not drawn) [Fenoterol hydrobromide]	-1.328	457.393	1.4				
O=C1NCC2(CCN(CCc3ccccc3)CC2)O1 [Fenspiride hydrochloride]				0.26	0.107	788.391	
O=C(O)Cc1sc(-c2ccccc2)nc1-c1ccc(Cl)cc1 [Fentiazac]	0.475	402.269	-1.501				
CC(C)(C)NC(=O)[C@H]1CC[C@H]2[C@@H]3CC[C@H]4NC(=O)C=C[C@]4(C)[C@H]3CC[C@]12C [Finasteride]	0.768	406.586	-1.623				
Cc1c(-c2ccccc2)oc2c(C(=O)OCCN3CCCCC3)cccc2c1=O [Flavoxate hydrochloride]				1.224	-0.169	734.394	
O=C(NCC1CCCCN1)c1cc(OCC(F)(F)F)ccc1OCC(F)(F)F (stereo not drawn) [Flecainide acetate]	0.272	448.174	-1.076				
O=c1[nH]c(=O)n([C@H]2C[C@H](O)[C@@H](CO)O2)cc1F [Floxuridine]				-0.009	0.659	772.114	
COC(=O)Nc1nc2cc(C(=O)c3ccc(F)cc3)ccc2[nH]1 [Flubendazol]				-0.335	1.185	683.74	

— publication PMC5681660, “Reduced hepatitis B and D viral entry using clinically applied drugs as novel inhibitors of the bile acid transporter NTCP” (Scientific Reports, 2017)
